The supplement of paper PMC11061612

What was measured:
[1] = system: LNZTA3WT4 (Low Grade Glioma); assay: Bliss excess, mean over the matrix (fraction); higher = more synergy
Outline: (§1)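 After 24 hours at 37°C and 5% CO2 in 1536-well plates, cells in DMEM/F12 or RPMI plus 10% FBS received two-drug dose matrices for 72 hours. Viability came from CellTiter-Glo 2.0 luminescence and was scaled as inhibition, anchored at 0 by vehicle wells and at 1 by blank wells. Combination Emax is taken as the second-highest inhibition in the matrix, and Bliss excess as the observed combination effect less EA + EB − EA·EB, with EA and EB the single-agent effects.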

EW-11 (Ewing's Sarcoma) [2] = assay: as above
Outline: as §1

[3] = system: HuCCT1 (Biliary Tract Carcinoma); assay: as above
Outline: as §1

[4] = system: SNU-16 (Gastric Carcinoma); assay: as above
Outline: as §1

[5] = system: YAPC (Pancreatic Carcinoma); assay: as above
Outline: as §1

GAMG (Glioblastoma) [6] = assay: as above
Outline: as §1

[7] = system: NCI-H524 (Small Cell Lung Carcinoma); assay: as above
Outline: as §1

MPP-89 (Mesothelioma) [8] = assay: as above
Outline: as §1

[9] = system: LS-123 (Colorectal Carcinoma); assay: as above
Outline: as §1

A673 (Ewing's Sarcoma) [10] = assay: as above
Outline: as §1

[11] = system: TGBC1TKB (Biliary Tract Carcinoma); assay: as above
Outline: as §1

KS-1 (Glioblastoma) [12] = assay: as above
Outline: as §1

[13] = system: OVCAR-5 (Ovarian Carcinoma); assay: as above
Outline: as §1

LOXIMVI (Melanoma) [14] = assay: as above
Outline: as §1

[15] = system: WSU-NHL (B-Cell Non-Hodgkin's Lymphoma); assay: as above
Outline: as §1

[16] = system: ESS-1 (Other Solid Carcinomas); assay: as above
Outline: as §1

[17] = system: BE-13 (T-Lymphoblastic Leukemia); assay: as above
Outline: as §1

CAL-72 (Osteosarcoma) [18] = assay: as above
Outline: as §1

[19] = system: SW1710 (Bladder Carcinoma); assay: as above
Outline: as §1

[20] = system: SNU-449 (Hepatocellular Carcinoma); assay: as above
Outline: as §1

[21] = system: SAS (Oral Cavity Carcinoma); assay: as above
Outline: as §1

[22] = system: KYAE-1 (Esophageal Adenocarcinoma); assay: as above
Outline: as §1

[23] = system: HH (T-Cell Non-Hodgkin's Lymphoma); assay: as above
Outline: as §1

[24] = system: LNZTA3WT4 (Low Grade Glioma); assay: combination Emax (second highest fraction inhibited in the dose matrix, 72 h); higher = more inhibition; extreme values may be limits of the assay
Outline: as §1

EW-11 (Ewing's Sarcoma) [25] = assay: as above
Outline: as §1

[26] = system: HuCCT1 (Biliary Tract Carcinoma); assay: as above
Outline: as §1

[27] = system: SNU-16 (Gastric Carcinoma); assay: as above
Outline: as §1

[28] = system: YAPC (Pancreatic Carcinoma); assay: as above
Outline: as §1

GAMG (Glioblastoma) [29] = assay: as above
Outline: as §1

[30] = system: NCI-H524 (Small Cell Lung Carcinoma); assay: as above
Outline: as §1

MPP-89 (Mesothelioma) [31] = assay: as above
Outline: as §1

[32] = system: LS-123 (Colorectal Carcinoma); assay: as above
Outline: as §1

A673 (Ewing's Sarcoma) [33] = assay: as above
Outline: as §1

[34] = system: TGBC1TKB (Biliary Tract Carcinoma); assay: as above
Outline: as §1

KS-1 (Glioblastoma) [35] = assay: as above
Outline: as §1

[36] = system: OVCAR-5 (Ovarian Carcinoma); assay: as above
Outline: as §1

LOXIMVI (Melanoma) [37] = assay: as above
Outline: as §1

[38] = system: WSU-NHL (B-Cell Non-Hodgkin's Lymphoma); assay: as above
Outline: as §1

[39] = system: ESS-1 (Other Solid Carcinomas); assay: as above
Outline: as §1

[40] = system: BE-13 (T-Lymphoblastic Leukemia); assay: as above
Outline: as §1

CAL-72 (Osteosarcoma) [41] = assay: as above
Outline: as §1

[42] = system: SW1710 (Bladder Carcinoma); assay: as above
Outline: as §1

[43] = system: SNU-449 (Hepatocellular Carcinoma); assay: as above
Outline: as §1

[44] = system: SAS (Oral Cavity Carcinoma); assay: as above
Outline: as §1

[45] = system: KYAE-1 (Esophageal Adenocarcinoma); assay: as above
Outline: as §1

[46] = system: HH (T-Cell Non-Hodgkin's Lymphoma); assay: as above
Outline: as §1
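Wherever Bliss excess, mean over the matrix is given: after 72 h of two-drug dosing.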

Cc1nc(-c2cn3c(n2)-c2ccc(-c4cnn(C(C)(C)C(N)=O)c4)cc2OCC3)n(C(C)C)n1 [Taselisib] + O=C(Nc1ccc2[nH]nc(-c3ccncc3)c2c1)[C@@H]1CCN(CC(=O)N2CCN(c3ccc(-c4ncccn4)cc3)CC2)C1 [SCH772984] (first compound max 10 µM, 7x7, partner max 5 µM)
Bliss excess [1]: -0.0617
Bliss excess (EW-11 (Ewing's Sarcoma) [2]): -0.002
Bliss excess [3]: 0.072
Bliss excess [4]: 0.123
Bliss excess [5]: 0.134
Bliss excess (GAMG (Glioblastoma) [6]): 0.0241
Bliss excess [7]: 0.0464
Bliss excess (MPP-89 (Mesothelioma) [8]): 0.0373
Bliss excess [9]: 0.0028
Bliss excess (A673 (Ewing's Sarcoma) [10]): 0.131
Bliss excess [11]: 0.0043
Bliss excess (KS-1 (Glioblastoma) [12]): 0.0097
Bliss excess [13]: 0.0022
Bliss excess (LOXIMVI (Melanoma) [14]): 0.091
Bliss excess [15]: 0.037
Bliss excess [16]: 0.0682
Bliss excess [17]: -0.0347
Bliss excess (CAL-72 (Osteosarcoma) [18]): -0.0562
Bliss excess [19]: -0.0048
Bliss excess [20]: 0.0076
Bliss excess [21]: 0.0999
Bliss excess [22]: -0.0018
Bliss excess [23]: 0.0858
combination Emax [24]: 0.66
combination Emax (EW-11 (Ewing's Sarcoma) [25]): 0.746
combination Emax [26]: 0.839
combination Emax [27]: 0.82
combination Emax [28]: 0.701
combination Emax (GAMG (Glioblastoma) [29]): 0.78
combination Emax [30]: 0.411
combination Emax (MPP-89 (Mesothelioma) [31]): 0.688
combination Emax [32]: 0.889
combination Emax (A673 (Ewing's Sarcoma) [33]): 0.705
combination Emax [34]: 0.663
combination Emax (KS-1 (Glioblastoma) [35]): 0.677
combination Emax [36]: 0.846
combination Emax (LOXIMVI (Melanoma) [37]): 1
combination Emax [38]: 0.97
combination Emax [39]: 0.923
combination Emax [40]: 0.373
combination Emax (CAL-72 (Osteosarcoma) [41]): 0.438
combination Emax [42]: 0.422
combination Emax [43]: 0.445
combination Emax [44]: 0.945
combination Emax [45]: 0.408
combination Emax [46]: 0.393

Cc1c2c(nn1C)CSCc1cc(n(C)n1)CSc1cc(c3ccccc3c1)OCCCc1c(C(=O)O)n(C)c3c-2c(Cl)ccc13 [AZD5991] + Nc1ccn([C@@H]2O[C@H](CO)[C@@H](O)C2(F)F)c(=O)n1 [Gemcitabine] (first compound max 1 µM, 7x7, partner max 0.3 µM)
Bliss excess [1]: 0.0625
Bliss excess (EW-11 (Ewing's Sarcoma) [2]): -0.0422
Bliss excess [3]: -0.0171
Bliss excess [4]: 0.0183
Bliss excess [5]: -0.0165
Bliss excess (GAMG (Glioblastoma) [6]): -0.0026
Bliss excess [7]: -0.0212
Bliss excess (MPP-89 (Mesothelioma) [8]): -0.0354
Bliss excess [9]: -0.0176
Bliss excess (A673 (Ewing's Sarcoma) [10]): -0.021
Bliss excess [11]: 0.0006
Bliss excess (KS-1 (Glioblastoma) [12]): -0.0354
Bliss excess [13]: -0.0442
Bliss excess (LOXIMVI (Melanoma) [14]): -0.0338
Bliss excess [15]: -0.0514
Bliss excess [16]: -0.0338
Bliss excess [17]: -0.0088
Bliss excess (CAL-72 (Osteosarcoma) [18]): 0.0305
Bliss excess [19]: -0.0571
Bliss excess [20]: -0.0021
Bliss excess [21]: -0.0223
Bliss excess [22]: 0.0034
Bliss excess [23]: -0.0369
combination Emax [24]: 0.633
combination Emax (EW-11 (Ewing's Sarcoma) [25]): 0.868
combination Emax [26]: 0.506
combination Emax [27]: 1
combination Emax [28]: 0.575
combination Emax (GAMG (Glioblastoma) [29]): 0.662
combination Emax [30]: 0.788
combination Emax (MPP-89 (Mesothelioma) [31]): 0.428
combination Emax [32]: 0.404
combination Emax (A673 (Ewing's Sarcoma) [33]): 0.893
combination Emax [34]: 0.255
combination Emax (KS-1 (Glioblastoma) [35]): 0.288
combination Emax [36]: 0.422
combination Emax (LOXIMVI (Melanoma) [37]): 0.835
combination Emax [38]: 0.967
combination Emax [39]: 0.961
combination Emax [40]: 0.923
combination Emax (CAL-72 (Osteosarcoma) [41]): 0.613
combination Emax [42]: 0.397
combination Emax [43]: 0.316
combination Emax [44]: 0.924
combination Emax [45]: 0.127
combination Emax [46]: 0.879
